Results reported in patent US20210308182A1, “REGULATORY T CELL EPITOPES” (EpiVax Inc., priority 2020, published 2021).

Assays:
CD4+ effector T cells = format: cell-based, human
[1] = tested on: T cells of PBMCs from lupus patients; settings: randomly selected lupus patients; cited from earlier work
human DR molecules = settings: cited from earlier work

| Sequence | suppression of activated effector CD4+ T cells (CD4+/CD25-high/FoxP3-intermediate) reacting to Tetanus Toxoid (CD4+ effector T cells) | suppression of proliferation of CD4+ effector T cells (CFSE) (CD4+ effector T cells) | lupus patients whose PBMCs contain T cells that proliferate in response to the peptide [1] [%] | binding to soluble HLA class II molecules (human DR molecules) |
| --- | --- | --- | --- | --- |
| KTLYLQMNSLRAEDTAKH (listed as Homo sapiens) [SEQ ID NO: 7] | strongly suppressed | Suppressed |  |  |
| RIHMVYSKRSGKPRGYAFIEY (listed as Homo sapiens) [peptide 131-151] |  |  | 40 | binds to a large panel of human DR molecules |
